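Cells were grown in 96-well plates and exposed to each compound for 48 hours at five concentrations; endpoints were interpolated linearly between bracketing concentrations, or set to the highest concentration if not reached. At the GI50, growth is halved. TGI is the concentration that stops growth completely.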
Assays:
Test in all cases: DTP human tumour cell line panel, 48 h
HCT-116 colon = system: HCT-116 colon
ACHN renal = system: ACHN renal
A549 NSCLC = system: A549 NSCLC
SNB-75 CNS = system: SNB-75 CNS
MDA-MB-468 breast = system: MDA-MB-468 breast
CAKI-1 renal = system: CAKI-1 renal
M14 melanoma = system: M14 melanoma
HS 578T breast = system: HS 578T breast
SK-OV-3 ovarian = system: SK-OV-3 ovarian
SW-620 colon = system: SW-620 colon
NCI-H226 lung = system: NCI-H226 lung
CCRF-CEM leukemia = system: CCRF-CEM leukemia
EKVX NSCLC = system: EKVX NSCLC
A498 renal = system: A498 renal
SK-MEL-28 melanoma = system: SK-MEL-28 melanoma
RPMI-8226 leukemia = system: RPMI-8226 leukemia
HCT-15 colon = system: HCT-15 colon
UO-31 renal = system: UO-31 renal
UACC-62 melanoma = system: UACC-62 melanoma
NCI/ADR-RES ovarian = system: NCI/ADR-RES ovarian
IGROV1 ovarian = system: IGROV1 ovarian
HL-60(TB) leukemia = system: HL-60(TB) leukemia
786-0 renal = system: 786-0 renal
TK-10 renal = system: TK-10 renal
PC-3 prostate = system: PC-3 prostate
NCI-H23 lung = system: NCI-H23 lung
SK-MEL-5 melanoma = system: SK-MEL-5 melanoma
DU-145 prostate = system: DU-145 prostate
T-47D breast = system: T-47D breast
MOLT-4 leukemia = system: MOLT-4 leukemia
HOP-62 NSCLC = system: HOP-62 NSCLC
SF-295 CNS = system: SF-295 CNS
MDA-MB-231 breast = system: MDA-MB-231 breast
UACC-257 melanoma = system: UACC-257 melanoma
MDA-MB-435 = system: MDA-MB-435
SR leukemia = system: SR leukemia
OVCAR-5 ovarian = system: OVCAR-5 ovarian
U251 CNS = system: U251 CNS
OVCAR-8 ovarian = system: OVCAR-8 ovarian
SK-MEL-2 melanoma = system: SK-MEL-2 melanoma
SF-268 CNS = system: SF-268 CNS
SF-539 CNS = system: SF-539 CNS
BT-549 breast = system: BT-549 breast
MALME-3M melanoma = system: MALME-3M melanoma
HCC-2998 colon = system: HCC-2998 colon
COLO 205 colon = system: COLO 205 colon
SNB-19 CNS = system: SNB-19 CNS
LOX IMVI melanoma = system: LOX IMVI melanoma
KM12 colon = system: KM12 colon
OVCAR-4 ovarian = system: OVCAR-4 ovarian
SN12C renal = system: SN12C renal
NCI-H460 lung = system: NCI-H460 lung
MCF7 breast = system: MCF7 breast
HT29 colon = system: HT29 colon
NCI-H522 lung = system: NCI-H522 lung
RXF 393 renal = system: RXF 393 renal
K-562 leukemia = system: K-562 leukemia
HOP-92 NSCLC = system: HOP-92 NSCLC
OVCAR-3 ovarian = system: OVCAR-3 ovarian

With Nc1nn2c(-c3cc4cc(Br)ccc4oc3=O)ccnc2c1N=Nc1ccccc1 as the molecule, how does the GI50 (HCT-116 colon) read?
The GI50 was 2.23 µM.

What about the TGI (HCT-116 colon) of the same molecule?
The TGI was 4.73 µM.

And the GI50 (ACHN renal)?
Its GI50 is 3.16 µM.

And the TGI (ACHN renal)?
The TGI was 14.4 µM.

And the GI50 (A549 NSCLC)?
Its GI50 is 3.42 µM.

What about the TGI (A549 NSCLC) of the same molecule?
Its TGI is 29.3 µM.

And the GI50 (SNB-75 CNS)?
The GI50 was 1.29 µM.

And the TGI (SNB-75 CNS)?
The TGI was 3.18 µM.

What about the GI50 (MDA-MB-468 breast) of the same molecule?
Its GI50 is 2.21 µM.

And the TGI (MDA-MB-468 breast)?
The TGI was 9.7 µM.

And the GI50 (CAKI-1 renal)?
The GI50 was 5.55 µM.

What about the TGI (CAKI-1 renal) of the same molecule?
Its TGI is 25.2 µM.

What about the GI50 (M14 melanoma) of the same molecule?
Its GI50 is 16 µM.

What about the TGI (M14 melanoma) of the same molecule?
Its TGI is over 100 µM.

And the GI50 (HS 578T breast)?
The GI50 was 3.11 µM.

And the TGI (HS 578T breast)?
Its TGI is 17 µM.

What about the GI50 (SK-OV-3 ovarian) of the same molecule?
The GI50 was 1.87 µM.

What about the TGI (SK-OV-3 ovarian) of the same molecule?
Its TGI is 3.95 µM.

What about the GI50 (SW-620 colon) of the same molecule?
Its GI50 is 6.24 µM.

And the TGI (SW-620 colon)?
The TGI was over 100 µM.

What about the GI50 (NCI-H226 lung) of the same molecule?
The GI50 was 2.16 µM.

What about the TGI (NCI-H226 lung) of the same molecule?
Its TGI is 5.84 µM.

What about the GI50 (CCRF-CEM leukemia) of the same molecule?
The GI50 was 24.6 µM.

What about the TGI (CCRF-CEM leukemia) of the same molecule?
The TGI was over 100 µM.

And the GI50 (EKVX NSCLC)?
The GI50 was 3.29 µM.

And the TGI (EKVX NSCLC)?
The TGI was 18 µM.

What about the GI50 (A498 renal) of the same molecule?
The GI50 was 1.97 µM.

And the TGI (A498 renal)?
Its TGI is 6.71 µM.

And the GI50 (SK-MEL-28 melanoma)?
Its GI50 is 5.02 µM.

What about the TGI (SK-MEL-28 melanoma) of the same molecule?
Its TGI is 22.3 µM.

And the GI50 (RPMI-8226 leukemia)?
The GI50 was 31.6 µM.

What about the TGI (RPMI-8226 leukemia) of the same molecule?
Its TGI is over 100 µM.

And the GI50 (HCT-15 colon)?
The GI50 was 4.87 µM.

And the TGI (HCT-15 colon)?
Its TGI is over 100 µM.

What about the GI50 (UO-31 renal) of the same molecule?
Its GI50 is 11.1 µM.

And the TGI (UO-31 renal)?
Its TGI is 86.6 µM.

And the GI50 (UACC-62 melanoma)?
The GI50 was 5.52 µM.

What about the TGI (UACC-62 melanoma) of the same molecule?
The TGI was 22.1 µM.

What about the GI50 (NCI/ADR-RES ovarian) of the same molecule?
Its GI50 is 2.07 µM.

And the TGI (NCI/ADR-RES ovarian)?
The TGI was 4.54 µM.

What about the GI50 (IGROV1 ovarian) of the same molecule?
The GI50 was 4.57 µM.

And the TGI (IGROV1 ovarian)?
Its TGI is 33.9 µM.

What about the GI50 (HL-60(TB) leukemia) of the same molecule?
Its GI50 is over 100 µM.

What about the TGI (HL-60(TB) leukemia) of the same molecule?
Its TGI is over 100 µM.

And the GI50 (786-0 renal)?
The GI50 was 2.01 µM.

And the TGI (786-0 renal)?
Its TGI is 4.71 µM.

What about the GI50 (TK-10 renal) of the same molecule?
Its GI50 is 12.7 µM.

What about the TGI (TK-10 renal) of the same molecule?
Its TGI is 37.2 µM.

And the GI50 (PC-3 prostate)?
Its GI50 is 2.92 µM.

What about the TGI (PC-3 prostate) of the same molecule?
The TGI was 9.32 µM.

What about the GI50 (NCI-H23 lung) of the same molecule?
The GI50 was 2.33 µM.

What about the TGI (NCI-H23 lung) of the same molecule?
Its TGI is 5.57 µM.

And the GI50 (SK-MEL-5 melanoma)?
The GI50 was 2.71 µM.

And the TGI (SK-MEL-5 melanoma)?
The TGI was 8.1 µM.

What about the GI50 (DU-145 prostate) of the same molecule?
The GI50 was 4.71 µM.

What about the TGI (DU-145 prostate) of the same molecule?
Its TGI is over 100 µM.

What about the GI50 (T-47D breast) of the same molecule?
Its GI50 is 2.79 µM.

What about the TGI (T-47D breast) of the same molecule?
The TGI was 13.2 µM.

And the GI50 (MOLT-4 leukemia)?
Its GI50 is 31.8 µM.

And the TGI (MOLT-4 leukemia)?
Its TGI is over 100 µM.

And the GI50 (HOP-62 NSCLC)?
The GI50 was 1.84 µM.

What about the TGI (HOP-62 NSCLC) of the same molecule?
Its TGI is 4.23 µM.

And the GI50 (SF-295 CNS)?
The GI50 was 2.1 µM.

What about the TGI (SF-295 CNS) of the same molecule?
The TGI was 4.88 µM.

And the GI50 (MDA-MB-231 breast)?
The GI50 was 1.99 µM.

And the TGI (MDA-MB-231 breast)?
The TGI was 4.43 µM.

And the GI50 (UACC-257 melanoma)?
The GI50 was 11.8 µM.

And the TGI (UACC-257 melanoma)?
The TGI was 40.9 µM.

What about the GI50 (MDA-MB-435) of the same molecule?
Its GI50 is 5.31 µM.

What about the TGI (MDA-MB-435) of the same molecule?
Its TGI is over 100 µM.

And the GI50 (SR leukemia)?
The GI50 was 5.38 µM.

And the TGI (SR leukemia)?
The TGI was over 100 µM.

What about the GI50 (OVCAR-5 ovarian) of the same molecule?
Its GI50 is 3.29 µM.

What about the TGI (OVCAR-5 ovarian) of the same molecule?
The TGI was 15.1 µM.

What about the GI50 (U251 CNS) of the same molecule?
The GI50 was 2.01 µM.

What about the TGI (U251 CNS) of the same molecule?
Its TGI is 4.4 µM.

What about the GI50 (OVCAR-8 ovarian) of the same molecule?
The GI50 was 2.24 µM.

And the TGI (OVCAR-8 ovarian)?
The TGI was 5.36 µM.

What about the GI50 (SK-MEL-2 melanoma) of the same molecule?
Its GI50 is 3.96 µM.

And the TGI (SK-MEL-2 melanoma)?
Its TGI is 19.8 µM.

What about the GI50 (SF-268 CNS) of the same molecule?
The GI50 was 2.12 µM.

And the TGI (SF-268 CNS)?
The TGI was 5.66 µM.

And the GI50 (SF-539 CNS)?
Its GI50 is 1.99 µM.

And the TGI (SF-539 CNS)?
Its TGI is 3.88 µM.

And the GI50 (BT-549 breast)?
Its GI50 is 1.92 µM.

And the TGI (BT-549 breast)?
The TGI was 3.77 µM.

What about the GI50 (MALME-3M melanoma) of the same molecule?
Its GI50 is 2.72 µM.

And the TGI (MALME-3M melanoma)?
Its TGI is 10.9 µM.

What about the GI50 (HCC-2998 colon) of the same molecule?
The GI50 was 3.17 µM.

And the TGI (HCC-2998 colon)?
Its TGI is 14.8 µM.

And the GI50 (COLO 205 colon)?
The GI50 was 23.2 µM.

What about the TGI (COLO 205 colon) of the same molecule?
Its TGI is over 100 µM.

And the GI50 (SNB-19 CNS)?
The GI50 was 1.94 µM.

And the TGI (SNB-19 CNS)?
Its TGI is 4.26 µM.

What about the GI50 (LOX IMVI melanoma) of the same molecule?
The GI50 was 3.09 µM.

And the TGI (LOX IMVI melanoma)?
Its TGI is 10.7 µM.

What about the GI50 (KM12 colon) of the same molecule?
The GI50 was 3.32 µM.

And the TGI (KM12 colon)?
The TGI was over 100 µM.

And the GI50 (OVCAR-4 ovarian)?
Its GI50 is 2.89 µM.

What about the TGI (OVCAR-4 ovarian) of the same molecule?
Its TGI is 15.3 µM.

And the GI50 (SN12C renal)?
Its GI50 is 1.91 µM.

And the TGI (SN12C renal)?
The TGI was 4.92 µM.

And the GI50 (NCI-H460 lung)?
The GI50 was 1.95 µM.

What about the TGI (NCI-H460 lung) of the same molecule?
Its TGI is 5.05 µM.

And the GI50 (MCF7 breast)?
The GI50 was 3.24 µM.

And the TGI (MCF7 breast)?
The TGI was 17.5 µM.

And the GI50 (HT29 colon)?
The GI50 was 3.13 µM.

And the TGI (HT29 colon)?
The TGI was 11.5 µM.

What about the GI50 (NCI-H522 lung) of the same molecule?
The GI50 was 1.9 µM.

And the TGI (NCI-H522 lung)?
Its TGI is 4.19 µM.

What about the GI50 (RXF 393 renal) of the same molecule?
Its GI50 is 1.99 µM.

What about the TGI (RXF 393 renal) of the same molecule?
Its TGI is 4.95 µM.

What about the GI50 (K-562 leukemia) of the same molecule?
The GI50 was 26.7 µM.

What about the TGI (K-562 leukemia) of the same molecule?
Its TGI is over 100 µM.

What about the GI50 (HOP-92 NSCLC) of the same molecule?
The GI50 was 2.21 µM.

What about the TGI (HOP-92 NSCLC) of the same molecule?
The TGI was 6.04 µM.

And the GI50 (OVCAR-3 ovarian)?
The GI50 was 3.24 µM.

And the TGI (OVCAR-3 ovarian)?
Its TGI is 23.9 µM.
